Experimental data from patent US9464082B2, “Aryl and arylalkyl substituted pyrazolyl and pyrimidinyl tricyclic enones as antioxidant inflammation modulators” (AbbVie Inc., priority 2014, dated 2016).
pIC50: −log10 of the molar value.

System: IFNγ-Induced NO Production
Assay: Nitric Oxide Suppression Assay (Suppression of IFNγ-Induced NO Production)
Assay type: cell-based
Settings: RAW264.7; RAW 264.7 mouse macrophage cells; 2 hour pre-treatment with compound (3 μM to 0.3 nM, 10 point curve); 20 ng/mL interferon gamma, ~18 hour; Griess detection; n=2-3 in duplicates
Procedure, shortened: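 Mouse RAW 264.7 macrophages pre-treated 2 h at 37 °C with compound (3 μM to 0.3 nM, 10 points; DMSO ≤1%), then stimulated with 20 ng/mL interferon gamma for ~18 h. Supernatant nitrite measured by Griess reaction, absorbance 520–550 nm. IC50 from curve fit of signal normalised to IFNγ alone, mean n=2-3 in duplicate.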

Compound	pIC50
C[C@@H]1C(=O)C(C#N)=C[C@]2(c3ccccc3)c3nn(C)c(-c4cccc(-c5ccc(N(S(C)(=O)=O)S(C)(=O)=O)cc5)c4)c3CC[C@@H]12 [Example 152, N-{3′-[(5aS,6S,9aR)-8-cyano-2,6-dimethyl-7-oxo-9a-phenyl-4,5,5a,6,7,9a-hexahydro-2H-benzo[g]indazol-3-yl]biphenyl-4-yl}-N-(methylsulfonyl)methanesulfonamide]	7.94
COc1ncc(-c2cccc(-c3c4c(nn3C)[C@@]3(c5ccccc5)C=C(C#N)C(=O)[C@@H](C)[C@@H]3CC4)c2)cn1 [Example 153, (5aS,6S,9aR)-3-[3-(2-methoxypyrimidin-5-yl)phenyl]-2,6-dimethyl-7-oxo-9a-phenyl-4,5,5a,6,7,9a-hexahydro-2H-benzo[g]indazole-8-carbonitrile]	8.19
COC(=O)CCc1cccc(-c2nc(C)nc3c2CC[C@H]2[C@H](C)C(=O)C(C#N)=C[C@]32c2ccccc2)c1 [Example 154, methyl 3-{3-[(6aS,7S,10aR)-9-cyano-2,7-dimethyl-8-oxo-10a-phenyl-5,6,6a,7,8,10a-hexahydrobenzo[h]quinazolin-4-yl]phenyl}propanoate]	7.32
Cc1nc(-c2cccc(CCC(=O)O)c2)c2c(n1)[C@@]1(c3ccccc3)C=C(C#N)C(=O)[C@@H](C)[C@@H]1CC2 [Example 155, 3-{3-[(6aS,7S,10aR)-9-cyano-2,7-dimethyl-8-oxo-10a-phenyl-5,6,6a,7,8,10a-hexahydrobenzo[h]quinazolin-4-yl]phenyl}propanoic acid]	6.97
Cc1nc(-c2cccc(CCC(N)=O)c2)c2c(n1)[C@@]1(c3ccccc3)C=C(C#N)C(=O)[C@@H](C)[C@@H]1CC2 [Example 156, 3-{3-[(6aS,7S,10aR)-9-cyano-2,7-dimethyl-8-oxo-10a-phenyl-5,6,6a,7,8,10a-hexahydrobenzo[h]quinazolin-4-yl]phenyl}propanamide]	8.45
C[C@@H]1C(=O)C(C#N)=C[C@]2(c3ccccc3)c3n[nH]c(-c4cnn(-c5ccc(C#N)cc5)c4)c3CC[C@@H]12 [Example 157, (5aS,6S,9aR)-3-[1-(4-cyanophenyl)-1H-pyrazol-4-yl]-6-methyl-7-oxo-9a-phenyl-4,5,5a,6,7,9a-hexahydro-2H-benzo[g]indazole-8-carbonitrile]	7.35
C[C@@H]1C(=O)C(C#N)=C[C@]2(c3ccccc3)c3n[nH]c(-c4cnn(-c5cccnc5)c4)c3CC[C@@H]12 [Example 158, (5aS,6S,9aR)-6-methyl-7-oxo-9a-phenyl-3-[1-(pyridin-3-yl)-1H-pyrazol-4-yl]-4,5,5a,6,7,9a-hexahydro-2H-benzo[g]indazole-8-carbonitrile]	7.48
C[C@@H]1C(=O)C(C#N)=C[C@]2(c3ccccc3)c3n[nH]c(-c4cnn(-c5ccncc5)c4)c3CC[C@@H]12 [Example 159, (5aS,6S,9aR)-6-methyl-7-oxo-9a-phenyl-3-[1-(pyridin-4-yl)-1H-pyrazol-4-yl]-4,5,5a,6,7,9a-hexahydro-2H-benzo[g]indazole-8-carbonitrile]	7.47
C[C@@H]1C(=O)C(C#N)=C[C@]2(c3ccccc3)c3nn(C)c(-c4cccc(-c5cccc(C(=O)O)c5)c4)c3CC[C@@H]12 [Example 166, 3′-[(5aS,6S,9aR)-8-cyano-2,6-dimethyl-7-oxo-9a-phenyl-4,5,5a,6,7,9a-hexahydro-2H-benzo[g]indazol-3-yl]biphenyl-3-carboxylic acid]	7.18
C[C@@H]1C(=O)C(C#N)=C[C@]2(c3ccccc3)c3nn(C)c(-c4cccc(-c5cn[nH]c5)c4)c3CC[C@@H]12 [Example 167, (5aS,6S,9aR)-2,6-dimethyl-7-oxo-9a-phenyl-3-[3-(1H-pyrazol-4-yl)phenyl]-4,5,5a,6,7,9a-hexahydro-2H-benzo[g]indazole-8-carbonitrile]	8.49
C[C@@H]1C(=O)C(C#N)=C[C@]2(c3ccccc3)c3nn(C)c(-c4cccc(-c5ccc(CNS(C)(=O)=O)cc5)c4)c3CC[C@@H]12 [Example 168, N-({3′-[(5aS,6S,9aR)-8-cyano-2,6-dimethyl-7-oxo-9a-phenyl-4,5,5a,6,7,9a-hexahydro-2H-benzo[g]indazol-3-yl]biphenyl-4-yl}methyl)methanesulfonamide]	7.91
C[C@@H]1C(=O)C(C#N)=C[C@]2(c3ccccc3)c3nn(C)c(-c4cccc(-c5ccc(NS(C)(=O)=O)cc5)c4)c3CC[C@@H]12 [Example 169, N-{3′-[(5aS,6S,9aR)-8-cyano-2,6-dimethyl-7-oxo-9a-phenyl-4,5,5a,6,7,9a-hexahydro-2H-benzo[g]indazol-3-yl]biphenyl-4-yl}methanesulfonamide]	8.06
C[C@@H]1C(=O)C(C#N)=C[C@]2(c3ccccc3)c3nn(C)c(-c4cccc(-c5ccc(O)cc5)c4)c3CC[C@@H]12 [Example 170, (5aS,6S,9aR)-3-(4′-hydroxybiphenyl-3-yl)-2,6-dimethyl-7-oxo-9a-phenyl-4,5,5a,6,7,9a-hexahydro-2H-benzo[g]indazole-8-carbonitrile]	8.16
C[C@@H]1C(=O)C(C#N)=C[C@]2(c3ccccc3)c3nn(C)c(-c4cccc(-c5ccc(C(N)=O)cc5)c4)c3CC[C@@H]12 [Example 171, 3′-[(5aS,6S,9aR)-8-cyano-2,6-dimethyl-7-oxo-9a-phenyl-4,5,5a,6,7,9a-hexahydro-2H-benzo[g]indazol-3-yl]biphenyl-4-carboxamide]	7.86
Cc1nc(-c2ccnnc2)c2c(n1)[C@@]1(c3ccccc3)C=C(C#N)C(=O)[C@@H](C)[C@@H]1CC2 [Example 172, (6aS,7S,10aR)-2,7-dimethyl-8-oxo-10a-phenyl-4-(pyridazin-4-yl)-5,6,6a,7,8,10a-hexahydrobenzo[h]quinazoline-9-carbonitrile]	7.31
Cc1noc(-c2ccc(-c3ncc4c(n3)[C@@]3(c5ccccc5)C=C(C#N)C(=O)[C@@H](C)[C@@H]3CC4)cc2)n1 [Example 173, (6aS,7S,10aR)-7-methyl-2-[4-(3-methyl-1,2,4-oxadiazol-5-yl)phenyl]-8-oxo-10a-phenyl-5,6,6a,7,8,10a-hexahydrobenzo[h]quinazoline-9-carbonitrile]	7.71
COc1ccc([C@]23C=C(C#N)C(=O)[C@@H](C)[C@@H]2CCc2c(-c4cncn4C)nc(C)nc23)cc1 [Example 174, (6aS,7S,10aR)-10a-(4-methoxyphenyl)-2,7-dimethyl-4-(1-methyl-1H-imidazol-5-yl)-8-oxo-5,6,6a,7,8,10a-hexahydrobenzo[h]quinazoline-9-carbonitrile]	8.72
COC(=O)c1ccc([C@]23C=C(C#N)C(=O)[C@@H](C)[C@@H]2CCc2c(-c4cncn4C)nc(C)nc23)cc1 [Example 175, methyl 4-[(6aS,7S,10aR)-9-cyano-2,7-dimethyl-4-(1-methyl-1H-imidazol-5-yl)-8-oxo-6,6a,7,8-tetrahydrobenzo[h]quinazolin-10a(5H)-yl]benzoate]	8.70
COC(=O)c1ccc([C@]23C=C(C#N)C(=O)[C@@H](C)[C@@H]2CCc2c(-c4c(Br)ncn4C)nc(C)nc23)cc1 [Example 176, methyl 4-[(6aS,7S,10aR)-4-(4-bromo-1-methyl-1H-imidazol-5-yl)-9-cyano-2,7-dimethyl-8-oxo-6,6a,7,8-tetrahydrobenzo[h]quinazolin-10a(5H)-yl]benzoate]	7.89
C[C@@H]1C(=O)C(C#N)=C[C@]2(c3ccccc3)c3nn(C)c(-c4cncnc4)c3CC[C@@H]12 [Example 177, (5aS,6S,9aR)-2,6-dimethyl-7-oxo-9a-phenyl-3-(pyrimidin-5-yl)-4,5,5a,6,7,9a-hexahydro-2H-benzo[g]indazole-8-carbonitrile]	7.97
C[C@@H]1C(=O)C(C#N)=C[C@]2(c3ccccc3)c3nn(C)c(-c4cccnc4)c3CC[C@@H]12 [Example 178, (5aS,6S,9aR)-2,6-dimethyl-7-oxo-9a-phenyl-3-(pyridin-3-yl)-4,5,5a,6,7,9a-hexahydro-2H-benzo[g]indazole-8-carbonitrile]	8.27
C[C@@H]1C(=O)C(C#N)=C[C@]2(c3ccccc3)c3c(c(-c4cncnc4)nn3C)CC[C@@H]12 [Example 179, (5aS,6S,9aR)-1,6-dimethyl-7-oxo-9a-phenyl-3-(pyrimidin-5-yl)-4,5,5a,6,7,9a-hexahydro-1H-benzo[g]indazole-8-carbonitrile]	8.91
